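GI50 marks 50% less growth. The concentration for full growth arrest is given as TGI.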
How the values were obtained:
Experiment in all cases: NCI anticancer screen, dose series, 384-well format
[1] = system: 786-0 renal
[2] = system: A498 renal
[3] = system: A549 NSCLC
[4] = system: ACHN renal
[5] = system: CAKI-1 renal
[6] = system: CCRF-CEM leukemia
[7] = system: COLO 205 colon
[8] = system: DU-145 prostate
[9] = system: HCC-2998 colon
[10] = system: HCT-116 colon
[11] = system: HCT-15 colon
[12] = system: HL-60(TB) leukemia
[13] = system: HOP-62 NSCLC
[14] = system: HS 578T breast
[15] = system: HT29 colon
[16] = system: IGROV1 ovarian
[17] = system: K-562 leukemia
[18] = system: KM12 colon
[19] = system: LOX IMVI melanoma
[20] = system: M14 melanoma
[21] = system: MALME-3M melanoma
[22] = system: MCF7 breast
[23] = system: MOLT-4 leukemia
[24] = system: NCI-H226 lung
[25] = system: NCI-H322M lung
[26] = system: NCI-H460 NSCLC
[27] = system: NCI-H522 lung
[28] = system: OVCAR-3 ovarian
[29] = system: OVCAR-5 ovarian
[30] = system: OVCAR-8 ovarian
[31] = system: PC-3 prostate
[32] = system: RPMI-8226 leukemia
[33] = system: RXF 393 renal
[34] = system: SF-268 CNS
[35] = system: SF-295 CNS
[36] = system: SK-MEL-2 melanoma
[37] = system: SK-MEL-28 melanoma
[38] = system: SN12C renal
[39] = system: SNB-19 CNS
[40] = system: SNB-75 CNS
[41] = system: SR leukemia
[42] = system: T-47D breast
[43] = system: TK-10 renal
[44] = system: U251 glioblastoma
[45] = system: UACC-257 melanoma
[46] = system: UACC-62 melanoma
[47] = system: UO-31 renal

O=C(O)c1ccc(CN2CCC(CN[C@@H]3C[C@H]3c3ccccc3)CC2)cc1
GI50 [1]: > 100000 nM
TGI [1]: > 100000 nM
GI50 [2]: > 100000 nM
TGI [2]: > 100000 nM
GI50 [3]: > 100000 nM
TGI [3]: > 100000 nM
GI50 [4]: > 100000 nM
TGI [4]: > 100000 nM
GI50 [5]: > 100000 nM
TGI [5]: > 100000 nM
GI50 [6]: > 100000 nM
TGI [6]: > 100000 nM
GI50 [7]: > 100000 nM
TGI [7]: > 100000 nM
GI50 [8]: > 100000 nM
TGI [8]: > 100000 nM
GI50 [9]: > 100000 nM
TGI [9]: > 100000 nM
GI50 [10]: > 100000 nM
TGI [10]: > 100000 nM
GI50 [11]: > 100000 nM
TGI [11]: > 100000 nM
GI50 [12]: > 100000 nM
TGI [12]: > 100000 nM
GI50 [13]: > 100000 nM
TGI [13]: > 100000 nM
GI50 [14]: > 100000 nM
TGI [14]: > 100000 nM
GI50 [15]: > 100000 nM
TGI [15]: > 100000 nM
GI50 [16]: > 100000 nM
TGI [16]: > 100000 nM
GI50 [17]: > 100000 nM
TGI [17]: > 100000 nM
GI50 [18]: > 100000 nM
TGI [18]: > 100000 nM
GI50 [19]: > 100000 nM
TGI [19]: > 100000 nM
GI50 [20]: > 100000 nM
TGI [20]: > 100000 nM
GI50 [21]: > 100000 nM
TGI [21]: > 100000 nM
GI50 [22]: > 100000 nM
TGI [22]: > 100000 nM
GI50 [23]: > 100000 nM
TGI [23]: > 100000 nM
GI50 [24]: > 100000 nM
TGI [24]: > 100000 nM
GI50 [25]: > 100000 nM
TGI [25]: > 100000 nM
GI50 [26]: > 100000 nM
TGI [26]: > 100000 nM
GI50 [27]: > 100000 nM
TGI [27]: > 100000 nM
GI50 [28]: > 100000 nM
TGI [28]: > 100000 nM
GI50 [29]: > 100000 nM
TGI [29]: > 100000 nM
GI50 [30]: > 100000 nM
TGI [30]: > 100000 nM
GI50 [31]: > 100000 nM
TGI [31]: > 100000 nM
GI50 [32]: > 100000 nM
TGI [32]: > 100000 nM
GI50 [33]: > 100000 nM
TGI [33]: > 100000 nM
GI50 [34]: > 100000 nM
TGI [34]: > 100000 nM
GI50 [35]: > 100000 nM
TGI [35]: > 100000 nM
GI50 [36]: > 100000 nM
TGI [36]: > 100000 nM
GI50 [37]: > 100000 nM
TGI [37]: > 100000 nM
GI50 [38]: > 100000 nM
TGI [38]: > 100000 nM
GI50 [39]: > 100000 nM
TGI [39]: > 100000 nM
GI50 [40]: > 100000 nM
TGI [40]: > 100000 nM
GI50 [41]: > 100000 nM
TGI [41]: > 100000 nM
GI50 [42]: > 100000 nM
TGI [42]: > 100000 nM
GI50 [43]: > 100000 nM
TGI [43]: > 100000 nM
GI50 [44]: > 100000 nM
TGI [44]: > 100000 nM
GI50 [45]: > 100000 nM
TGI [45]: > 100000 nM
GI50 [46]: > 100000 nM
TGI [46]: > 100000 nM
GI50 [47]: > 100000 nM
TGI [47]: > 100000 nM

Cc1cc2c(cc1C)NC1=C(N2)OC(c2c3ccccc3cc3ccccc23)C1=O (stereo not drawn)
GI50 [1]: 261 nM
TGI [1]: 630 nM
GI50 [2]: 319 nM
TGI [2]: 924 nM
GI50 [3]: 626 nM
TGI [3]: 2200 nM
GI50 [4]: 546 nM
TGI [4]: 13600 nM
GI50 [5]: 750 nM
TGI [5]: 5690 nM
GI50 [6]: 194 nM
TGI [6]: 341 nM
GI50 [7]: 786 nM
TGI [7]: 1680 nM
GI50 [8]: 429 nM
TGI [8]: 1430 nM
GI50 [9]: 688 nM
TGI [9]: 1570 nM
GI50 [10]: 286 nM
TGI [10]: 759 nM
GI50 [11]: 261 nM
TGI [11]: 711 nM
GI50 [12]: 212 nM
TGI [12]: 363 nM
GI50 [13]: 325 nM
TGI [13]: 825 nM
GI50 [14]: 178 nM
TGI [14]: 355 nM
GI50 [15]: 303 nM
TGI [15]: 988 nM
GI50 [16]: 953 nM
TGI [16]: 2630 nM
GI50 [17]: 208 nM
TGI [17]: 491 nM
GI50 [18]: 310 nM
TGI [18]: 964 nM
GI50 [19]: 361 nM
TGI [19]: 1350 nM
GI50 [20]: 290 nM
TGI [20]: 653 nM
GI50 [21]: 334 nM
TGI [21]: 1100 nM
GI50 [22]: 397 nM
TGI [22]: 1910 nM
GI50 [23]: 193 nM
TGI [23]: 337 nM
GI50 [24]: 743 nM
TGI [24]: 1860 nM
GI50 [25]: 1220 nM
TGI [25]: 7460 nM
GI50 [26]: 260 nM
TGI [26]: 654 nM
GI50 [27]: 192 nM
TGI [27]: 385 nM
GI50 [28]: 237 nM
TGI [28]: 582 nM
GI50 [29]: 1300 nM
TGI [29]: 5220 nM
GI50 [30]: 290 nM
TGI [30]: 794 nM
GI50 [31]: 422 nM
TGI [31]: 1440 nM
GI50 [32]: 223 nM
TGI [32]: 390 nM
GI50 [33]: 285 nM
TGI [33]: 513 nM
GI50 [34]: 354 nM
TGI [34]: 1050 nM
GI50 [35]: 208 nM
TGI [35]: 495 nM
GI50 [36]: 224 nM
TGI [36]: 415 nM
GI50 [37]: 573 nM
TGI [37]: 4410 nM
GI50 [38]: 652 nM
TGI [38]: 4130 nM
GI50 [39]: 397 nM
TGI [39]: 1540 nM
GI50 [40]: 381 nM
TGI [40]: 1230 nM
GI50 [41]: 189 nM
TGI [41]: 340 nM
GI50 [42]: 1070 nM
TGI [42]: 6250 nM
GI50 [43]: 548 nM
TGI [43]: 7540 nM
GI50 [44]: 281 nM
TGI [44]: 691 nM
GI50 [45]: 716 nM
TGI [45]: 3290 nM
GI50 [46]: 329 nM
TGI [46]: 1250 nM
GI50 [47]: 1940 nM
TGI [47]: 9300 nM

From PubChem BioAssay (NCI)
